Tests used:
[1] = biological target: Dihydroorotate dehydrogenase (quinone), mitochondrial (Homo sapiens, UniProt Q02127); assay: Binding affinity to human DHODH
[2] = biological target: T1, Dihydroorotate dehydrogenase (Plasmodium falciparum, UniProt Q54A96); assay: Binding affinity to Plasmodium falciparum DHODH; settings: for Ki: read-out: Ki app
T1 sequence (Q54A96 whole entry): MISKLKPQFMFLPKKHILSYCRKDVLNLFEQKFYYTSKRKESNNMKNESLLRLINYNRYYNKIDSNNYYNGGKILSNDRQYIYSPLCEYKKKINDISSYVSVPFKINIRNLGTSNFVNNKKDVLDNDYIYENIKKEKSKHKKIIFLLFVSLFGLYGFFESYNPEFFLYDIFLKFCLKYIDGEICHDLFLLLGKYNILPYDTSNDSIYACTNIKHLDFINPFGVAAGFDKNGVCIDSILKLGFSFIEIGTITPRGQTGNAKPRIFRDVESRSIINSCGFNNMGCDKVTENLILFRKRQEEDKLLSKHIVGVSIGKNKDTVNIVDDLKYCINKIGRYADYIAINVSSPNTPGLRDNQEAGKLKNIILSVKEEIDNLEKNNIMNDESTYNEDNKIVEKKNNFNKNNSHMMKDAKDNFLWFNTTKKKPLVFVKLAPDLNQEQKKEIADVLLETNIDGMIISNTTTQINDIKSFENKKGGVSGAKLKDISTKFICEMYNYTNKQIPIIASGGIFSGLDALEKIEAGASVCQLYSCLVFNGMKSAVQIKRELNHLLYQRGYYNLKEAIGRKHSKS

Dihydroorotate dehydrogenase (quinone), mitochondrial, sequence (Q02127 whole entry): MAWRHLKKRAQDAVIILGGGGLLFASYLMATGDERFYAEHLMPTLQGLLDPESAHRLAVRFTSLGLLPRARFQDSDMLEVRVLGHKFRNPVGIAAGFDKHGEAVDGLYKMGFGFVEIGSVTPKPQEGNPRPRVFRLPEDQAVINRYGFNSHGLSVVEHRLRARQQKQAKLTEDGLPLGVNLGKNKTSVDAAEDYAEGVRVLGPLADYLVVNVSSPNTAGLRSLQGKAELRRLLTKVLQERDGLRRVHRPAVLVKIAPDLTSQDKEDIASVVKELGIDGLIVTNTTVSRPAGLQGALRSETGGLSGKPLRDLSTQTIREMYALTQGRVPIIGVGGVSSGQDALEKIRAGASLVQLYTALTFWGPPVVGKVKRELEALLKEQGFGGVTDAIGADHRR

Row | IC50 [1] [µM] | IC50 [2] [µM] | Ki [1] [µM] | Ki [2] [µM] | SMILES
1 | > 200 | > 200 | – | – | CN(C(=O)c1ccc2ccccc2c1)c1ccccc1C(=O)O
2 | > 200 | 93.4 | – | 10.8 | CN(C(=O)c1ccc2cc(Br)ccc2c1)c1ccccc1C(=O)O

The remaining lines, values behind:

Row | SMILES | IC50 [1] [µM] | IC50 [2] [µM] | Ki [1] [µM] | Ki [2] [µM]
3 | O=C(Nc1ccccc1C(=O)O)c1ccc2cc(Br)ccc2c1 | 8.4 | 143 | 1.1 | 16.4
4 | O=C(Nc1ccccc1C(=O)O)c1ccc2ccccc2c1 | 13.8 | > 200 | 1.8 | –
5 | O=C(Nc1ccccc1C(=O)O)c1ccc(-c2ccccc2)cc1 | 5 | 154 | 0.7 | 17.7
6 | CN(C(=O)c1ccc(-c2ccccc2)cc1)c1ccccc1C(=O)O | > 200 | 42.6 | – | 4.9
